Starred links: 1 amine or outer side, 2 acyl side, 3 side chain; linkers in the order of their positions; H or OH if unused. Non-standard residues stand in square brackets, D forms with d. Residues, ends and D or L forms follow the SMILES beside them. No end group written: not given here. *: point of attachment. Oic = O=C(O)[C@@H]1C[C@@H]2CCCC[C@@H]2N1; Phe(4-Cl) = N[C@@H](Cc1ccc(Cl)cc1)C(=O)O; γGlu = O=C(O)[C@H](CCC(=O)[*:2])N[*:1]; NMeR = CN[C@@H](CCCNC(=N)N)C(=O)O; Tridecanoyl = CCCCCCCCCCCCC(=O)*; hArg = N=C(N)NCCCC[C@H](N)C(=O)O; Cha = N[C@@H](CC1CCCCC1)C(=O)O; αMeP = C[C@@]1(C(=O)O)CCCN1; β3hV = CC(C)[C@H](N)CC(=O)O; Pip = O=C(O)[C@@H]1CCCCN1; Nle = CCCC[C@H](N)C(=O)O; Hexanoyl = CCCCCC(=O)*; AEEA = NCCOCCOCC(=O)O; Aib = CC(C)(N)C(=O)O
Legend:
Type in all cases: in vitro ADME
[1] = In vitro stability in rat liver homogenate; conditions: tissue homogenate
In short: (§1)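 Peptide 5 μM final; rat plasma / liver homog. / kidney homog.; 37° C., 4 hr. Quench MeOH + IS, vortex 15 min RT, spin 5500 g 15 min; supernatant by HR LC-MS.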

[2] = In vitro stability in rat kidney homogenate; conditions: rat, tissue homogenate
Method: Apelin peptides were spiked into rat plasma, liver homogenate, and kidney homogenate, which were obtained from commercial sources, to a final concentration of 5 μM. The samples were then incubated at 37° C. over a period of 4 hr. […] In a typical experiment, an aliquot of 100 μL of sample was taken from the incubation vial, followed by addition of 300 μL of MeOH containing internal standard. The quenched sample was centrifuged at 5500 g for 15 min after 15 min vortex in room temperature. The supernatant was then analyzed by high resolution LC-MS. […] In vitro plasma, […], and kidney stability results are shown below in Table 14.

[3] = In vitro stability in rat plasma
In short: as §1

| Molecule | remaining at 4 h, 5 μM [1] | remaining at 4 h, 5 μM [2] | remaining at 4 h, 5 μM [3] | Stability at 4 hours (% Remaining) Liver ([1]; 4 h, 5 μM) | Stability at 4 hours (% Remaining) Kidney ([2]; 4 h, 5 μM) | Stability at 4 hours (% Remaining) Plasma ([3]; 4 h, 5 μM) |
| --- | --- | --- | --- | --- | --- | --- |
| CCCCCCCCCCCCC(=O)N[C@@H](CCC(=O)NCCOCCOCC(=O)NCCOCCOCC(=O)N[C@H](CCC(N)=O)C(=O)N[C@@H](CCCNC(=N)N)C(=O)N1CCC[C@H]1C(=O)N(C)[C@@H](CCCNC(=N)N)C(=O)N[C@@H](CC1CCCCC1)C(=O)N[C@@H](CO)C(=O)N[C@@H](Cc1c[nH]cn1)C(=O)N[C@@H](CCCCN)C(=O)NCC(=O)N1CCC[C@@]1(C)C(=O)N[C@@H](CCCC)C(=O)NC(C)(C)C(=O)N[C@@H](Cc1ccc(Cl)cc1)C(=O)O)C(=O)O [compound 498] ({Tridecanoyl-γGlu-AEEA-AEEA}-[dQ]RP[NMeR][Cha]SHKG[αMeP][Nle][Aib][Phe(4-Cl)]-OH) | > 90% | 23% | > 90% | – | – | – |
| 120 (QRP[NMeR][Cha]SHKG[Oic][Nle][Aib][Phe(4-Cl)]; not fully specified (N-terminus); ends and bridges not checked; also: 10K mPEG acetamide on N-terminal MerPr) [compound 120] | – | – | – | 61 % Remaining | <1.0 % Remaining | 68 % Remaining |
| CCCCCC(=O)N[C@@H](CCC(=O)NCCOCCOCC(=O)NCCOCCOCC(=O)N[C@@H](CCC(N)=O)C(=O)N[C@@H](CCCNC(=N)N)C(=O)N1CCC[C@H]1C(=O)N(C)[C@@H](CCCNC(=N)N)C(=O)N[C@@H](CC1CCCCC1)C(=O)N[C@@H](CO)C(=O)N[C@@H](Cc1c[nH]cn1)C(=O)N[C@@H](CCCCN)C(=O)NCC(=O)N1[C@H](C(=O)N[C@@H](CCCC)C(=O)NC(C)(C)C(=O)N[C@@H](Cc2ccc(Cl)cc2)C(=O)O)C[C@@H]2CCCC[C@@H]21)C(=O)O [compound 562] ({Hexanoyl-γGlu-AEEA-AEEA}-QRP[NMeR][Cha]SHKG[Oic][Nle][Aib][Phe(4-Cl)]-OH) | 4% | < 1% | > 90% | – | – | – |
| CCCCCCCCCCCCC(=O)N[C@@H](CCC(=O)NCCOCCOCC(=O)NCCOCCOCC(=O)N[C@@H](CCC(N)=O)C(=O)N[C@@H](CCCNC(=N)N)C(=O)N1CCC[C@H]1C(=O)N(C)[C@@H](CCCNC(=N)N)C(=O)N[C@H](CC(=O)N[C@@H](CO)C(=O)N[C@@H](Cc1c[nH]cn1)C(=O)N[C@@H](CCCCN)C(=O)NCC(=O)N1[C@H](C(=O)N[C@@H](CCCC)C(=O)N2CCC[C@H]2C(=O)N[C@@H](Cc2ccc(Cl)cc2)C(=O)O)C[C@@H]2CCCC[C@@H]21)C(C)C)C(=O)O [compound 391] ({Tridecanoyl-γGlu-AEEA-AEEA}-QRP[NMeR][β3hV]SHKG[Oic][Nle]P[Phe(4-Cl)]-OH) | 5% | 2% | 2% | – | – | – |
| CCCCCCCCCCCCC(=O)N[C@@H](CCC(=O)NCCOCCOCC(=O)NCCOCCOCC(=O)N[C@H](CCC(N)=O)C(=O)N[C@@H](CCCNC(=N)N)C(=O)N1CCCC[C@H]1C(=O)N(C)[C@@H](CCCNC(=N)N)C(=O)N[C@@H](CC1CCCCC1)C(=O)N[C@@H](CO)C(=O)N[C@@H](Cc1c[nH]cn1)C(=O)N[C@@H](CCCCN)C(=O)NCC(=O)N1[C@H](C(=O)N[C@@H](CCCC)C(=O)NC(C)(C)C(=O)N[C@@H](Cc2ccc(Cl)cc2)C(=O)O)C[C@@H]2CCCC[C@@H]21)C(=O)O [compound 517] ({Tridecanoyl-γGlu-AEEA-AEEA}-[dQ]R[Pip][NMeR][Cha]SHKG[Oic][Nle][Aib][Phe(4-Cl)]-OH) | 19% | < 1% | > 90% | – | – | – |
| CCCCCCCCCCCCC(=O)N[C@@H](CCC(=O)NCCOCCOCC(=O)NCCOCCOCC(=O)N[C@H](CC(=O)N[C@@H](CCCNC(=N)N)C(=O)N1CCC[C@H]1C(=O)N(C)[C@@H](CCCNC(=N)N)C(=O)N[C@@H](CC1CCCCC1)C(=O)N[C@@H](CO)C(=O)N[C@@H](Cc1c[nH]cn1)C(=O)N[C@@H](CCCCN)C(=O)NCC(=O)N1[C@H](C(=O)N[C@@H](CCCC)C(=O)N2CCC[C@H]2C(=O)N[C@@H](Cc2ccc(Cl)cc2)C(=O)O)C[C@@H]2CCCC[C@@H]21)C(C)C)C(=O)O [compound 393] ({Tridecanoyl-γGlu-AEEA-AEEA}-[β3hV]RP[NMeR][Cha]SHKG[Oic][Nle]P[Phe(4-Cl)]-OH) | 12% | 2% | > 90% | – | – | – |
| CCCCCCCCCCCCC(=O)N[C@@H](CCC(=O)NCCOCCOCC(=O)NCCOCCOCC(=O)N[C@H](CCC(N)=O)C(=O)N[C@@H](CCCNC(=N)N)C(=O)N1CCC[C@@]1(C)C(=O)N[C@@H](CCCCNC(=N)N)C(=O)N[C@H](CC(=O)N[C@@H](CO)C(=O)N[C@@H](Cc1c[nH]cn1)C(=O)N[C@@H](CCCCN)C(=O)NCC(=O)N1CCCC[C@H]1C(=O)N[C@@H](CCCC)C(=O)N1CCC[C@@]1(C)C(=O)N[C@@H](Cc1ccc(Cl)cc1)C(=O)O)C(C)C)C(=O)O [compound 503] ({Tridecanoyl-γGlu-AEEA-AEEA}-[dQ]R[αMeP][hArg][β3hV]SHKG[Pip][Nle][αMeP][Phe(4-Cl)]-OH) | 7% | 2% | 85% | – | – | – |

From patent publication US11807693B2 (priority 2014, dated 2023)
